Data as given in patent US20170158776A1, “TREATMENT OF LUNG CANCER USING A COMBINATION OF AN ANTI-PD-1 ANTIBODY AND ANOTHER ANTI-CANCER AGENT” (Bristol-Myers Squibb Company, priority 2014, published 2017).
Marks after values point to notes of the source that are not given here.

Key:
patients with NSCLC [1] = assay: Nivolumab monotherapy arm (Arm F), efficacy; format: in vivo, human
Experimental: (§1) One arm was developed to test the effect of nivolumab monotherapy on NSCLC. Patients were treated with 3 mg/kg nivolumab (nivo) q2w (once every 2 weeks).

[2] = tested on: pts with advanced NSCLC after first-line PT-based chemotherapy; assay: Phase 1: switch to nivolumab maintenance as monotherapy or with bevacizumab, efficacy (RECIST 1.1); format: in vivo, human
Experimental: (§2) Pts with no progression within 42 days of completing ≧4 cycles first-line PT-based chemotherapy (±BEV) were assigned to either nivolumab (N) 5 mg/kg IV Q3W+BEV 15 mg/kg IV Q3W (non-squamous [non-sq] pts only; n=12) or N 3 mg/kg IV Q2W monotherapy (sq arm [n===8] or non-sq arm [n=13]) until progression/unacceptable toxicity (treatment beyond progression allowed based on protocol-defined criteria). ORR was evaluated using RECIST 1.1.

[3] = tested on: pts with advanced NSCLC after first-line PT-based chemotherapy; set-up: species or system human; conditions: in vivo
Experimental: as §2

patients with NSCLC [4] = assay: Nivolumab monotherapy arm (Arm F), safety; format: in vivo, human; conditions: 3 mg/kg q2w
Experimental: as §1

[5] = tested on: heavily pretreated patients with advanced NSCLC; assay: CA209-003 phase 1: nivolumab monotherapy, safety; conditions: N = 129

In the case of nivolumab, the “Best Overall Response: CR” value (patients with NSCLC [1]; Arm F (n = 52)) is reported as 4 (8%), the “Best Overall Response: PD” value (patients with NSCLC [1]; Arm F (n = 52)) is reported as 20 (38%) and the “Best Overall Response: PR” value (patients with NSCLC [1]; Arm F (n = 52)) is reported as 8 (15%). The “Best Overall Response: SD” value (patients with NSCLC [1]; Arm F (n = 52)) was 14 (27%), the “Best Overall Response: Unable to determine” value (“Best Overall Response: Unable” below) (patients with NSCLC [1]; Arm F (n = 52)) was 6 (12%) and the “Best Overall Response: Unconfirmed PR” value (patients with NSCLC [1]; Arm F (n = 52)) was 0. For the same substance, the “Confirmed DCR” value (patients with NSCLC [1]; Arm F (n = 52)) was 26 (50%), the “Confirmed ORR” value (patients with NSCLC [1]; Arm F (n = 52)) was 12 (23%) and the “Overall DCR” value (patients with NSCLC [1]; Arm F (n = 52)) was 26 (50%). The “Overall ORR” value (patients with NSCLC [1]; Arm F (n = 52)) was 12 (23%), the “>80% target lesion reduction at 18 wks” value (patients with NSCLC [1]; Arm F N = 52) was 3 (6%) and the “Median OS” value (patients with NSCLC [1]; Arm F N = 52) was 22.6 mos. The “Median PFS” value (patients with NSCLC [1]; Arm F N = 52) was 15.6 wks, the Number of responders (patients with NSCLC [1]; Arm F N = 52) was 12 (23%) and the “OS rate at 12 months” value (patients with NSCLC [1]; Arm F N = 52) was 74%. For the same substance, the Ongoing responder (patients with NSCLC [1]; Arm F N = 52) was 8 (67%), the “PFS rate at 24 weeks” value (patients with NSCLC [1]; Arm F N = 52) was 41% and the “Best Overall Response: CR” value (patients with NSCLC [1]; Non-squamous (n = 39)) was 3 (8%). For the same substance, the “Best Overall Response: PD” value (patients with NSCLC [1]; Non-squamous (n = 39)) was 7 (18%), the “Best Overall Response: PR” value (patients with NSCLC [1]; Non-squamous (n = 39)) was 7 (18%) and the “Best Overall Response: SD” value (patients with NSCLC [1]; Non-squamous (n = 39)) was 0. For the same substance, the “Best Overall Response: Unable” value (patients with NSCLC [1]; Non-squamous (n = 39)) was 6 (15%), the “Best Overall Response: Unconfirmed PR” value (patients with NSCLC [1]; Non-squamous (n = 39)) was 0 and the “Confirmed DCR” value (patients with NSCLC [1]; Non-squamous (n = 39)) was 18 (46%). For the same substance, the “Confirmed ORR” value (patients with NSCLC [1]; Non-squamous (n = 39)) was 10 (26%), the “Overall DCR” value (patients with NSCLC [1]; Non-squamous (n = 39)) was 18 (46%) and the “Overall ORR” value (patients with NSCLC [1]; Non-squamous (n = 39)) was 10 (26%). For the same substance, the “Best Overall Response: CR” value (patients with NSCLC [1]; Squamous (n = 13)) was 1 (8%), the “Best Overall Response: PD” value (patients with NSCLC [1]; Squamous (n = 13)) was 5 (38%) and the “Best Overall Response: PR” value (patients with NSCLC [1]; Squamous (n = 13)) was 1 (8%). For the same substance, the “Best Overall Response: SD” value (patients with NSCLC [1]; Squamous (n = 13)) was 6 (46%), the “Best Overall Response: Unable” value (patients with NSCLC [1]; Squamous (n = 13)) was 0 and the “Best Overall Response: Unconfirmed PR” value (patients with NSCLC [1]; Squamous (n = 13)) was 0. The “Confirmed DCR” value (patients with NSCLC [1]; Squamous (n = 13)) was 8 (62%), the “Confirmed ORR” value (patients with NSCLC [1]; Squamous (n = 13)) was 2 (15%) and the “Overall DCR” value (patients with NSCLC [1]; Squamous (n = 13)) was 8 (62%). For the same substance, the “Overall ORR” value (patients with NSCLC [1]; Squamous (n = 13)) was 2 (15%), the “Stable disease as best overall response” value ([2]; all pts of the treatment) was 48% and the “Median PFS” value ([2]; non-sq pts) was 21.4 weeks. The “Stable disease as best overall response” value ([2]; non-sq pts) was 46%, the “Median PFS” value ([2]; sq pts) was 16.0 weeks and the “Stable disease as best overall response” value ([2]; sq pts) was 50%. The “Median OS” value ([2]; switch maintenance) was “not reached”, the ORR ([2]; switch maintenance, RECIST 1.1) was 10% and the “Any-grade treatment-related adverse events” value [3] was 62%. For the same substance, the “grade 3 pleural effusion” value [3] was 1 n, the “grade 3 pneumonitis” value [3] was 2 n and the “pts discontinued due to treatment-related AEs” value [3] was “Four”. The “treatment-related grade 4 AEs” value [3] was “No treatment-related grade 4 AEs were reported”, the “Arthralgia, All Gr” value (patients with NSCLC [4]; n = 52) was 5 (9.6) n (%) and the “Arthralgia, GR ¾” value (patients with NSCLC [4]; n = 52) was 0 n (%). The “Constipation, All Gr” value (patients with NSCLC [4]; n = 52) was 3 (5.8) n (%), the “Constipation, GR ¾” value (patients with NSCLC [4]; n = 52) was 0 n (%) and the “Diarrhea, All Gr” value (patients with NSCLC [4]; n = 52) was 6 (11.5) n (%). The “Diarrhea, GR ¾” value (patients with NSCLC [4]; n = 52) was 1 (1.9) n (%), the “Fatigue, All Gr” value (patients with NSCLC [4]; n = 52) was 15 (28.8) n (%) and the “Fatigue, GR ¾” value (patients with NSCLC [4]; n = 52) was 0 n (%). The “Hypothyriodism, All Gr” value (patients with NSCLC [4]; n = 52) was 3 (5.8) n (%), the “Hypothyriodism, GR ¾” value (patients with NSCLC [4]; n = 52) was 0 n (%) and the “Nausea, All Gr” value (patients with NSCLC [4]; n = 52) was 7 (13.5) n (%). For the same substance, the “Nausea, GR ¾” value (patients with NSCLC [4]; n = 52) was 0 n (%), the “Pneumonitis, All Gr” value (patients with NSCLC [4]; n = 52) was 3 (5.8) n (%) and the “Pneumonitis, GR ¾” value (patients with NSCLC [4]; n = 52) was 1 (1.9) n (%). The “Pruritus, All Gr” value (patients with NSCLC [4]; n = 52) was 6 (11.5) n (%), the “Pruritus, GR ¾” value (patients with NSCLC [4]; n = 52) was 0 n (%) and the “Rash, All Gr” value (patients with NSCLC [4]; n = 52) was 10 (19.2) n (%). For the same substance, the “Rash, GR ¾” value (patients with NSCLC [4]; n = 52) was 2 (3.8) n (%), the “Total patients with an event, All Gr” value (patients with NSCLC [4]; n = 52) was 37 (71.2) n (%) and the “Total patients with an event, GR ¾” value (patients with NSCLC [4]; n = 52) was 10 (19.2) n (%). The “Vomiting, All Gr” value (patients with NSCLC [4]; n = 52) was 3 (5.8) n (%), the “Vomiting, GR ¾” value (patients with NSCLC [4]; n = 52) was 0 n (%) and the “Discontinued subjects: Toxicity” value (patients with NSCLC [4]; 52 treated) was 6 (12%). For the same substance, the “Patients with any treatment-related select AE, Any Grade” value [5] was 41 (53) % (n), the “Patients with any treatment-related select AE, Grade 3-4” value [5] was 5 (6) % (n) and the “select AE Endocrinopathies, Any Grade” value [5] was 6 (8) % (n). The “select AE Endocrinopathies, Grade 3-4” value [5] was 0 % (n), the “select AE Gastrointestinal, Any Grade” value [5] was 12 (15) % (n) and the “select AE Gastrointestinal, Grade 3-4” value [5] was 1 (1) % (n). For the same substance, the “select AE Hepatic, Any Grade” value [5] was 5 (6) % (n), the “select AE Hepatic, Grade 3-4” value [5] was 1 (1) % (n) and the “select AE Infusion reaction, Any Grade” value [5] was 4 (5) % (n). The “select AE Infusion reaction, Grade 3-4” value [5] was 1 (1) % (n), the “select AE Pulmonary, Any Grade” value [5] was 7 (9)^c % (n) and the “select AE Pulmonary, Grade 3-4” value [5] was 2 (3) % (n). The “select AE Renal, Any Grade” value [5] was 3(4) % (n) and the “select AE Renal, Grade 3-4” value [5] was 0 % (n).
